Measured values: patent US10537535B2, “Histone deacetylase inhibitors” (The Regents of the University of California, priority 2015, dated 2020)

Assays:
[1] = tested on: gene expression in the antenna of Drosophila melanogaster; assay: RNA-seq transcriptome analysis of Drosophila antennae after exposure or feeding; assay type: in vivo
Excerpt: In order to examine the physiological effects of long-term exposure to an odorant, flies were maintained in vials with circulating volatiles from headspace of a low concentration (1% in paraffin oil) of the odorant diacetyl, which acts on a number of different receptor pathways in Drosophila. In a similar manner to previous odor-exposure studies, flies were exposed to diacetyl for 5 days and performed an RNA-seq analysis of the antennae, which are known odor-detecting organs. The transcriptome was compared with a control group of age-matched flies that were exposed to the headspace of the solvent paraffin oil (PO, FIG. 3A).
Flies were exposed to diacetyl (2,3-Butanedione, B85307, Sigma-Aldrich, St. Louis, Mo.) by placing them in vials in a cylindrical closed container (112 mm diameter×151 mm height) along with an odor-containing glass vial. The odorant was dissolved in 10 mL paraffin oil at 1% dilution. For a given exposure protocol, two groups of flies were prepared: those exposed to 1% diacetyl headspace and those exposed to paraffin oil headspace alone (control flies). Adult male flies aged 1 d were transferred to fly vials containing fresh medium, and put into the container with the odor vial. At the end of the fifth day of exposure, flies were collected, and their antennae were dissected for RNA extraction. All treatments and experiments were performed at room temperature. For the recovery experiment, flies were transferred again to the container containing a glass vial of paraffin oil after 5 days of diacetyl exposure. At the end of the fifth day of recovery, flies were collected, and their antennae were dissected for RNA extraction.
Sodium butyrate (B5887, Sigma-Aldrich) or valproic acid (P4543, Sigma-Aldrich) were dissolved in normal fly food medium at the final concentration of 10 mM. Three groups of flies were prepared: those treated with one of the HDAC inhibitors and those without HDAC inhibitor treatment (control flies). Adult flies aged 1 d were transferred to fly vials containing medium with or without a HDAC inhibitor. At the end of the fifth day of treatment, flies were collected, and their antennae were dissected for RNA extraction. All treatments and experiments were performed at room temperature.
The second and third antennal segments from 40-60 male flies after treatment were carefully hand-dissected from the head, collected in 1.5 ml microfuge tubes kept cold in liquid nitrogen. Antennae were mechanically crushed with disposable RNAse-free plastic pestles, and total RNA was isolated using a Trizol-based protocol. cDNA libraries were prepared from total RNA (300-1000 ng/sample) using the Illumina TruSeq RNA Library Preparation Kit (Illumina Catalog #RS-122-2001). Samples were submitted to the UCR IIGB sequencing core for high-throughput sequencing using the Illumina HiSeq2500 platform. Raw reads were aligned to the Drosophila melanogaster reference genome (dmel-all-chromosome-r5.48.fasta) with Tophat2, and a count table of reads overlapping with exonic regions of genes was generated by the UCR bioinformatics core. The numbers of biological replicates are: 2, day 5 paraffin oil; 1, day 5 diacetyl; 2, day 5 mock; 2, day 5 sodium butyrate; 2, day 5 valproic acid; 2, day 10 paraffin oil recovery; 2, day 10 diacetyl recovery.
The read count table for all the genes were then imported into R and a statistical analysis of differential gene expression using the DESeq package (1.22.0) was performed. […] The gene list analysis was performed using the GO Term Mapper (http://go.princeton.edu/) with Generic GO slim datasets, and the Statistical overrepresentation test was performed using the PANTHER classification (http://www.pantherdb.org/) system with GO complete datasets.
This example investigates the overlap among genes modulated by diacetyl as compared to sodium butyrate and valproic acid, which are known HDAC inhibitors. […]

[2] = tested on: H4K5 acetylation in HEK293 cells; assay: Western blot of histone acetylation in HEK293 nuclear extracts: H4K5; assay type: cell-based, human
Experimental: (§1) In order to test whether diacetyl can increase acetylation of histones in vivo, human HEK293 cells were used, which offer a tractable system to prepare nuclear extracts. The cells were exposed to different doses of diacetyl for 2 or 6 hours, and monitored histone acetylation levels by Western blot analysis from nuclear extract. […] The acetylation levels of H3K14 and H4K5 were not affected (FIG. 5A).
(§2) Human embryonic kidney 293 (HEK293) cells were grown in 100 mm cell culture dishes with Dulbecco's modified Eagle's medium (DMEM) (10-013, Corning, Manassas, Va.), supplemented with 10% fetal bovine serum (FBS) (26140-079, Gibco, Carlsbad, Calif.) at 37° C. with 5% CO2. Cells that were ˜80% confluent were treated with freshly-prepared medium supplemented with diacetyl at concentrations indicated. In order to prevent diffusion of diacetyl odor from the treatment dishes to the outside environment, the cell culture dishes were put into a custom-made container (155.6×155.6×85.7 mm) with a charcoal filter top. […]
(§3) Proteins in the nuclear extracts (60 μg protein) were separated by SDS-PAGE gels (456-1043, Bio-Rad, Hercules, Calif.), transferred onto PVDF membranes (162-0174, Bio-Rad), and incubated with anti-histone antibodies: acetylated H3K9 (1/2000: ab4441, abeam, Cambridge, Mass.), acetylated H3K14 (1/5000: 06-911, EMD Millipore, Billerica, Mass.), acetylated H4K5 (1/2000: 07-327, EMD Millipore). Bound antibody was detected by horseradish peroxidase-conjugated anti-rabbit secondary antibody (1/20000: 1705046, Bio-Rad) and developed using Clarity™ Western ECL Substrate (1705060, Bio-Rad). Signals were detected and captured by ImageQuant™ LAS 4000 mini (GE healthcare, Pittsburgh, Pa.), and band intensities were quantified with ImageJ software. H3K9 acetylation intensity in individual lanes was reported relative to the normalized Mock treatment (Mock H3K9ace/Mock PCNA), and calculated using this formula: Relative H3K9ace intensity for each timepoint=(Diacetyl H3K9ace/diacetyl PCNA)/(Mock H3K9ace/Mock PCNA).

[3] = tested on: H3K14 acetylation in HEK293 cells; assay: Western blot of histone acetylation in HEK293 nuclear extracts: H3K14; assay type: cell-based, human
Experimental: as §1, §2, §3

[4] = 5 days, diacetyl 1% headspace, SB/VA 10 mM in food, vs control
[5] = of 125 up-regulated genes, 5 days exposure then 5 days recovery
[6] = out of 125 diacetyl-induced genes

## CC(=O)C(C)=O [diacetyl, 2,3-Butanedione]
[1]; [4]
  number of differentially-expressed genes in antennal transcriptome: 202 genes
  number of genes down-regulated >2-fold: 77 genes
  number of genes up-regulated >2-fold: 125 genes
[1]; [5]
  genes continuing to show increased mRNA abundance after odor removal: 11 genes
  genes showing little change after recovery: 38 genes
  transcripts showing a reduction with diacetyl recovery: 27 genes
[1]; out of 77 down-regulated genes
  diacetyl down-regulated genes overlapping with those down-regulated in either SB- or VA-treated groups: About 28 genes
[1]; [6]
  diacetyl-induced genes overlapping with SB-induced genes: 51 genes
  diacetyl-induced genes overlapping with VA-induced genes: 40 genes
[2]; 1 mM, 2 or 6 hours
  H4K5 acetylation level: did not alter
[2]; 10 mM, 2 hours
  H4K5 acetylation level: not affected
[2]; 10 mM, 6 hours
  H4K5 acetylation level: unaffected
[3]; 1 mM, 2 or 6 hours
  H3K14 acetylation level: did not alter
[3]; 10 mM, 2 hours
  H3K14 acetylation level: not affected
[3]; 10 mM, 6 hours
  H3K14 acetylation level: unaffected
